Legend:
[1] = test system: IA memory in the rat; experiment: Inhibitory Avoidance (IA) task, normal rats; type: in vivo; details: for performance on the IA task, normal rats: one hour before, p<0.05 relative to all other groups; for long-term retention of the IA task: second retention test one week after the first, no additional training or drug
Experimental: An exemplary passive avoidance test utilizes an apparatus that consists of a lit chamber that can be separated from a dark chamber by a sliding door. At training, the animal is placed in the lit chamber for some period of time, and the door is opened. The animal moves to the dark chamber after a short delay—the latency—that is recorded. Upon entry into the dark chamber, the door is shut closed and a foot shock is delivered.
The Inhibitory Avoidance (IA) task is a well-studied behavioral paradigm which can provide the researcher with a consistent and long-lasting measure of memory. The paradigm consists of one training trial and one retention trial. Test articles may be administered to the rats either before or after training. […] The objective of the following experiments was to investigate the effects of methylphenidate on IA memory in the rat.

[2] = test system: rats; experiment: Activity level tests (10 minute session); details: 0.5 mg/kg; 10 minute period one hour after injection; FIGS. 16-21
[3] = test system: fornix lesion rats; experiment: Inhibitory Avoidance (IA) task, rats with lesions of the fornix (amnesic rats); type: in vivo, rat; details: one hour before; for performance of treated fornix animals compared with normal, saline injected animals: Student-Newman-Keuls post hoc test
Source text: Animal models for studying fornix-mediated memory consolidation have previously been described. See, for example, Taubenfield et al., Supra. The fornix-lesioned animals can be used for drug screening, e.g., to identify dosages of the subject reuptake inhibitors which enhance memory consolidation. The lesioned mammal can have a lesion of the fornix or a related brain structure that disrupts memory consolidation (e.g., perirhinal cortex, amygdala, medial septal nucleus, locus coeruleus, hippocampus, mammallary bodies). Lesions in the mammal can be produced by mechanical or chemical disruption. For example, the fornix lesion can be caused by surgical ablation, electrolytic, neurotoxic and other chemical ablation techniques, or reversible inactivation such as by injection of an anesthetic, e.g., tetrodotoxin or lidocaine, to temporarily arrest activity in the fornix.
In one embodiment, the animal can be a rat. Briefly, the animals are anesthetized, e.g., with intraperitoneal injections of a ketamine-xylazine mixture and positioned in a Kopf stereotaxic instrument. A sagittal incision is made in the scalp and a craniotomy is performed extending 2.0 mm posterior and 3.0 mm lateral from Bregma. An aspirative device, e.g., with a 20 gauge tip, is mounted to a stereotaxic frame (Kopf Instruments) and fimbria-fornix is aspirated by placing the suction tip at the correct sterotaxic location in the animals brain. Unilateral aspirative lesions are made by suction through the cingulate cortex, completely transecting the fimbria fornix unilaterally, and (optionally) removing the dorsal tip of the hippocampus as well as the overlying cingulate cortex to inflict a partial denervation on the hippocampus target. See also, Gage et al., (1983) Brain Res. 268:27 and Gage et al. (1986) Neuroscience 19:241.
The Inhibitory Avoidance (IA) task is a well-studied behavioral paradigm which can provide the researcher with a consistent and long-lasting measure of memory. The paradigm consists of one training trial and one retention trial. Test articles may be administered to the rats either before or after training. Improved memory, as a result of test compound administration, is evident as increased latency on the retention trial. The objective of the following experiments was to investigate the effects of methylphenidate on IA memory in the rat.
In the next experiment, we investigated whether the performance of amnesic rats could be improved by administration of methylphenidate. In this experiment, control rats and rats with lesions of the fornix received injections of either saline or methylphenidate (5 mg/kg), and one hour later, were tested on the IA task.
In the next experiment, we investigated whether the performance of amnesic rats could be improved by administration of amphetamine. […]

With C[C@@H](N)Cc1ccccc1 [R-(−)amphetamine] the “retention of the IA task (second, verifying experiment)” value ([1]; 0.5 mg/kg one hour prior to training, 24 hour retention interval, 0.46 mA shock, unpaired t-test p<0.002, FIG. 15) was “significantly improved retention of the task”, the “dose required for improved retention of the IA task, compared with S-(+)amphetamine” value ([1]; 0.5, 1.0, 2.0 or 4.0 mg/kg one hour prior to training, 24 hour retention interval, 0.46 mA shock, FIG. 14) was “a much lower dose of R-(−)amphetamine is required for the same improved retention effect” and the “retention of the IA task at doses above 0.5 mg/kg” value ([1]; 1.0, 2.0 or 4.0 mg/kg versus 0.5 mg/kg, one hour prior to training, 24 hour retention interval, FIG. 14) was “did not further improve the retention results”. For the same molecule, the “activity levels (distance, movements, movement time, rears, stereotyped movements, resting time) versus saline control” value [2] was “no significant effects on the activity levels”.

For C[C@H](N)Cc1ccccc1 [S-(+)amphetamine], the “retention of the IA task” value ([1]; 2 mg/kg (200 standard units) one hour prior to training, 24 hour retention interval, 0.46 mA shock, FIG. 9) was “improved retention of the task”, the “retention of the IA task” value ([1]; 25 standard units/kg, injected thirty minutes prior to training, FIG. 4) was “no effect” and the “retention of the IA task” value ([1]; 50 standard units/kg, injected thirty minutes prior to training, FIG. 4) was “no effect”. For the same molecule, the “retention of the IA task” value ([1]; 100 standard units/kg, injected thirty minutes prior to training, FIG. 4) was “no effect”, the “retention of the IA task” value ([1]; 200 standard units, injected thirty minutes prior to training, FIG. 4) was “improved retention of the task” and the “performance on the IA task, normal rats” value ([1]; 200 standard units/kg, FIG. 8) was “dramatically enhanced the performance of normal rats”. For the same molecule, the “retention of the IA task (second, verifying experiment)” value ([1]; 200 standard units/kg, unpaired t-test p<0.01, FIG. 5) was “significantly improved retention of the task”, the “long-term retention of the IA task” value ([1]; F(4,47)=3.688, p<0.01, FIG. 7) was “performed significantly better than rats that had received control injections of vehicle solution” and the “performance on the IA task, fornix lesion rats” value ([3]; 200 standard units/kg, FIG. 8) was “appeared to improve the performance of the fornix lesion rats”. The “performance of treated fornix animals compared with normal, saline injected animals” value ([3]; 200 standard units/kg) was “not significantly different from normal, saline injected animals”.

In the case of COC(=O)C(c1ccccc1)C1CCCCN1 (centres unmarked) [methylphenidate], the “performance on the IA task, normal rats” value ([1]; 5 mg/kg, FIG. 3) is reported as “dramatically enhanced the performance of normal rats”, the “retention of the IA task” value ([1]; 50 standard units/kg, injected thirty minutes prior to training, FIG. 1) is reported as “improved retention” and the “optimal pre-training drug administration time” value ([1]; 50 standard units/kg, time of administration varied) is reported as “most effective when administered to the rats one hour prior to training”. For the same molecule, the “retention of the IA task (second, verifying experiment)” value ([1]; 50 standard units/kg, unpaired t-test p<0.03, FIG. 2) was “significantly improved retention of the task”, the “retention of the IA task” value ([1]; 100 standard units/kg, injected thirty minutes prior to training, FIG. 1) was “no effect” and the “retention of the IA task” value ([1]; 150 standard units/kg, injected thirty minutes prior to training, FIG. 1) was “no effect”. For the same molecule, the “long-term retention of the IA task” value [1] was “this improvement is long lasting”, the “performance on the IA task, fornix lesion rats” value ([3]; 5 mg/kg, FIG. 3) was “appeared to improve the performance of the fornix lesion rats” and the “performance of treated fornix animals compared with normal, saline injected animals” value ([3]; 5 mg/kg) was “not significantly different from normal, saline injected animals”.

Source: US20020161002A1, “Use of catecholamine reuptake inhibitors to enhance memory” (priority 2001, published 2002)
